Laboratory results from ChEMBL document CHEMBL1201862, “PubChem BioAssay data set” (2004).
Activity calls are given as the source filed them.

Key:
[1] = target: T1, Cytochrome P450 1A2 (Homo sapiens, UniProt P05177);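 further: PubChem cytochrome P450 panel assay, CYP1A2 panel member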
T1 sequence (P05177 whole entry): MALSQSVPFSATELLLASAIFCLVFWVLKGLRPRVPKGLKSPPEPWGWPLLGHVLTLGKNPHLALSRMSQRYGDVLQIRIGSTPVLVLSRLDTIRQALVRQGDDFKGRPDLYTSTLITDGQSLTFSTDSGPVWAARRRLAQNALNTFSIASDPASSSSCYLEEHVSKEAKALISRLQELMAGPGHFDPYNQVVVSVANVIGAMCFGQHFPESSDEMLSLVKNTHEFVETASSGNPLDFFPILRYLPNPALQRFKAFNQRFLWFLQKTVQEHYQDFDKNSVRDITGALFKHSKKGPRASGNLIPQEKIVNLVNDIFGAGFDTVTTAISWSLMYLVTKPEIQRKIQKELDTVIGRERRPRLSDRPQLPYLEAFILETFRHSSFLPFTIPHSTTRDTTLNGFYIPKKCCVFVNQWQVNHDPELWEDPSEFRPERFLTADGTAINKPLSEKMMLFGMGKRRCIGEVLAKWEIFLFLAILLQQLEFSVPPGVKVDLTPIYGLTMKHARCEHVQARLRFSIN

[2] = target: Cytochrome P450 2C9 (Homo sapiens, UniProt P11712)
[3] = HEp-2 cell cytotoxicity, dose response, cytotoxicity control for RSV inhibitor project, HTS (AID 2410); format: functional; conditions: human respiratory syncytial virus
[4] = target: T2, Corticotropin-releasing factor receptor 2/Corticotropin-releasing factor-binding protein (Homo sapiens, UniProt P24387+Q13324); assay: Dose Response confirmation of uHTS hits for small molecule antagonists of the CRF-binding protein and CRF-R2 receptor complex.; format: functional; conditions: read-out: IC50_Mean
T2 sequence (Q13324 whole entry): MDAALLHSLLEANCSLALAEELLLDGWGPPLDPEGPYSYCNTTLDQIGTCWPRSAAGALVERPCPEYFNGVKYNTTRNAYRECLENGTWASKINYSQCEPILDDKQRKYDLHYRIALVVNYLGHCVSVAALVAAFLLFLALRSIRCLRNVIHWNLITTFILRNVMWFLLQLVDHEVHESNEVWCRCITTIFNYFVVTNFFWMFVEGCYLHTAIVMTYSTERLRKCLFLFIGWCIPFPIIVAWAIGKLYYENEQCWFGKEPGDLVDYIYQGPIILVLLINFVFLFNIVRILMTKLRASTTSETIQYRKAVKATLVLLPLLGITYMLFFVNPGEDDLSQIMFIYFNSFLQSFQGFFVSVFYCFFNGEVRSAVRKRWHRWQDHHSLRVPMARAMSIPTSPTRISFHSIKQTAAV
T2 sequence (P24387 whole entry): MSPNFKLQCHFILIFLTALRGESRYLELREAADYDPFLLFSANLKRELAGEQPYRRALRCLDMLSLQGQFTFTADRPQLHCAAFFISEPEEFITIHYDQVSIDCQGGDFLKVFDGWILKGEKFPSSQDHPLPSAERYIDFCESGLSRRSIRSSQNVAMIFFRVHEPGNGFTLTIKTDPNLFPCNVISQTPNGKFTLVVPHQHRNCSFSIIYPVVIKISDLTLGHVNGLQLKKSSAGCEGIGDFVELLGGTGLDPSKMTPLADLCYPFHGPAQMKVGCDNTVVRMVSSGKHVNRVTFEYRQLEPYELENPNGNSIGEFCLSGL

[5] = target: T2, Corticotropin-releasing factor receptor 2/Corticotropin-releasing factor-binding protein; assay: activators of CRF receptor 2 with binding protein – uHTS hits, confirmation (AID 602473); format: functional; conditions: read-out: EC50_Mean
[6] = target: Cytochrome P450 3A4 (Homo sapiens, UniProt P08684);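 further: CYP3A4 tested as one member of a cytochrome P450 panel screen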
[7] = target: Cytochrome P450 2C19 (Homo sapiens, UniProt P33261); assay: Cytochrome panel assay with activity outcomes. Panel member name: p450-cyp2c19 Compounds with AC50 equal or less than 10 uM are considered active; format: functional; conditions: read-out: AC50
Cytochrome P450 2C19, sequence (P33261 whole entry): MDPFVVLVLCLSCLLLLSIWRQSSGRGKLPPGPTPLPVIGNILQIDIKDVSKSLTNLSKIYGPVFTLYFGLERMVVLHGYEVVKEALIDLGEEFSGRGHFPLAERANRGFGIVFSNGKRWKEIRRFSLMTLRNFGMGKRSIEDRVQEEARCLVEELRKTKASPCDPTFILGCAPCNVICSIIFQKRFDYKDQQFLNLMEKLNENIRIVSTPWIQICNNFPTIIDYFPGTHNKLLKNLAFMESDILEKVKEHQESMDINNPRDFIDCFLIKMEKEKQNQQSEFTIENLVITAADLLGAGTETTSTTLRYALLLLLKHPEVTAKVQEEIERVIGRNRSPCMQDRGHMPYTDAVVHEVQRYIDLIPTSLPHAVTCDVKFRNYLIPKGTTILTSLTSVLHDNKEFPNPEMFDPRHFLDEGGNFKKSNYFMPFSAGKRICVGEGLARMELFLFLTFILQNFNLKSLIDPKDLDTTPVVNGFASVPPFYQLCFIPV

Cytochrome P450 2C9, sequence (P11712 whole entry): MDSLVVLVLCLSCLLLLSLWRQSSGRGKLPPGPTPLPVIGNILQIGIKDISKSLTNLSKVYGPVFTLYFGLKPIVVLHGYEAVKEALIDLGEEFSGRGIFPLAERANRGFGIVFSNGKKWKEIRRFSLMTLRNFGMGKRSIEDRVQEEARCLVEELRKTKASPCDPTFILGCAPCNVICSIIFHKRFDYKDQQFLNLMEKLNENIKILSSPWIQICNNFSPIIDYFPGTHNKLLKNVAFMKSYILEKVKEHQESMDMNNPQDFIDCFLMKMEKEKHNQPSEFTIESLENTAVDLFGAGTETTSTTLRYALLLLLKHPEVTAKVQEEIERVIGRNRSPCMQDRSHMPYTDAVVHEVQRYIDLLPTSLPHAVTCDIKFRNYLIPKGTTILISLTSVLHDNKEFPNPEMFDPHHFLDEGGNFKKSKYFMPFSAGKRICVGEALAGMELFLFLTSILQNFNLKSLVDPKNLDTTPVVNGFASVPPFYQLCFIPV
Cytochrome P450 3A4, sequence (P08684 whole entry): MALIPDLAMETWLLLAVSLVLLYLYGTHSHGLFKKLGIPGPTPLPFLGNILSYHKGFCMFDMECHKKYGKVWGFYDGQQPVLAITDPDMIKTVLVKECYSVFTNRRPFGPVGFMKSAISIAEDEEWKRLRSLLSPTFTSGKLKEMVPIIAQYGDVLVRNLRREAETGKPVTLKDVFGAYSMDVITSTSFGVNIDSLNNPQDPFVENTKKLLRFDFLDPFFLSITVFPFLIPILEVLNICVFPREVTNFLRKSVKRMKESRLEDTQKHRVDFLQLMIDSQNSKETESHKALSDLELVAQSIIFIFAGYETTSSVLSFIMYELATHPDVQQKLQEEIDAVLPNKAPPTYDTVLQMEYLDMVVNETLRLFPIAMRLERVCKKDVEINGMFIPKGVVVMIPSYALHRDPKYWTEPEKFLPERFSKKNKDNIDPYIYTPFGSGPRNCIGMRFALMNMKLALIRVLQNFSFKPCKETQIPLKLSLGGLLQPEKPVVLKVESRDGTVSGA

Row | SMILES | AC50 [1] | IC50 [4] | EC50 [5] | also measured
1 | CCCc1cc2c(n1Cc1cccc(Cl)c1)C(C)C1CN(C(=O)c3ccccc3)C(C)(C(=O)OC)C21 (stereo not drawn) | 31.6 µM (inconclusive) | – | – | –
2 | CCn1c2ccccc2c2cc(NC(=O)C(C)Oc3ccc(OC)cc3)ccc21 (stereo not drawn) | – | – | – | AC50 [2]: 7.94 µM (inconclusive); CC50 [3]: > 50 µM (active)
3 | Cc1cc(NC(=O)c2cc(C(C)C)on2)no1 | 20 µM (inconclusive) | – | – | –
4 | O=C(Nc1ccc(F)cc1F)c1cccnc1Oc1cccc(C(F)(F)F)c1 | 0.794 µM (inconclusive) | – | – | –
5 | CCOC(=O)n1ccn(C)c1=S [CARBIMAZOLE] | 12.6 µM (inconclusive) | – | – | –
6 | CC(=O)Nc1ccc(OCC(=O)N2CCC(Cc3ccccc3)CC2)cc1 | – | – | – | CC50 [3]: 21.6 µM (active)
7 | Cc1ccc(Cn2c(C(C)Nc3nc(-c4ccc(F)cc4)cs3)nc3cc(Cl)c(Cl)cc32)cc1 (stereo not drawn) | – | – | – | CC50 [3]: 49.3 µM (active)
8 | CCCCCC(=O)N1CC2(CC(c3cccc(NC(=O)CC)c3)=NO2)C[C@H]1C(N)=O (stereo partly drawn) | – | > 47.1 µM (inactive) | > 53 µM (inactive) | –
9 | CC(NC(=O)Nc1ccc(Cl)cc1)c1ccc2c(c1)OCO2 (stereo not drawn) | – | – | – | CC50 [3]: 39.5 µM (active)
10 | COC(=O)N1CCC2(CCN(C(=O)NC(C)C)CC2)CC1 | 20 µM (inconclusive) | – | – | AC50 [2]: 12.6 µM (inconclusive)
11 | COc1ccccc1NC(=O)Nc1ccc(Cc2ccncc2)cc1 | – | – | – | CC50 [3]: 19.1 µM (active)
12 | CCC(=O)Nc1c2c(nc3c1CCC3)CCCC2 | 15.8 µM (inconclusive) | – | – | –
13 | Cc1cc(Br)cc2c1N(C)C(=O)C2(c1ccc(O)cc1)c1ccc(O)cc1 | – | – | – | CC50 [3]: 13.8 µM (active)
14 | OC(COc1ccc(Cl)c2ccccc12)CN1CCN(c2ccccn2)CC1 (stereo not drawn) | – | – | – | CC50 [3]: 18.3 µM (active)

Now from value to compound, other results behind:

Row | AC50 [1] | IC50 [4] | EC50 [5] | SMILES | also measured
15 | 12.6 µM (inconclusive) | – | – | COCCN1C(=O)C(O)=C(C(=O)c2cccc(OC)c2)C1c1ccc(C)o1 (stereo not drawn) | AC50 [2]: 31.6 µM (inconclusive)
16 | 0.316 µM (inconclusive) | – | – | CN(C)c1ncc2nc(-c3cc(F)cc(F)c3)c(=O)n(-c3ccccc3)c2n1 | –
17 | – | > 47.1 µM (inactive) | > 53 µM (inactive) | CCC(c1nnc(SCC(=O)Nc2c(F)cccc2F)n1Cc1ccccc1)N(C)C (stereo not drawn) | –
18 | 5.01 µM (inconclusive) | – | – | Cn1cc(-c2nc3cnc(Oc4ccccc4)nc3n(C3CC3)c2=O)c2ccccc21 | AC50 [6]: 25.1 µM (inconclusive)
19 | – | > 47.1 µM (inactive) | > 53 µM (inactive) | COc1cc(C=O)ccc1Oc1cnccn1 | –
20 | – | > 47.1 µM (inactive) | > 53 µM (inactive) | Cc1ccc(NC(=O)C2CCCN2C(=O)c2cccs2)cc1C (stereo not drawn) | –
21 | 0.501 µM (inconclusive) | – | – | CCCC[C@@H]1C[C@H]1C(NC(=O)c1ccccc1)c1ccc(-c2ccccc2)cc1 (stereo partly drawn) | AC50 [2]: 2 µM (inconclusive); AC50 [6]: 7.94 µM (inconclusive)
22 | – | > 47.1 µM (inactive) | > 53 µM (inactive) | Cc1cn(CC(=O)N2CCN(c3ccccn3)CC2)c(=O)[nH]c1=O | –
23 | – | > 47.1 µM (inactive) | > 53 µM (inactive) | CC1CCc2[nH]c3ccc(C(=O)N(C)CC(=O)Nc4cccc(F)c4)cc3c2C1 (stereo not drawn) | –
24 | – | > 47.1 µM (inactive) | > 53 µM (inactive) | COc1cc(NC(S)=NCc2ccco2)cc(OC)c1 | –
25 | – | > 47.1 µM (inactive) | > 53 µM (inactive) | Cc1cc([N+](=O)[O-])ccc1NCc1ccccc1[N+](=O)[O-] | –
26 | – | 11 µM (active) | > 53 µM (inactive) | COc1ccc(CNc2cc([N+](=O)[O-])ccc2OC)cc1 | –
27 | 2.51 µM (inconclusive) | – | – | Cc1nc2cnc(Nc3ccccc3)nc2n(CCc2ccccc2)c1=O | AC50 [6]: 10 µM (inconclusive)
28 | 0.0708 µM (inconclusive) | – | – | O=c1c2ccccc2c(-c2ccccc2)nn1Cc1ccc(Cl)cc1 | –
29 | 0.794 µM (inconclusive) | – | – | CCC/C=C(\CCC)C(NS(=O)(=O)c1cccc2cccnc12)c1ccc(-c2ccccc2)cc1 (stereo not drawn) | AC50 [7]: 2.51 µM (inconclusive)
30 | – | > 47.1 µM (inactive) | > 53 µM (inactive) | COc1ccc(/C=C/C(=O)N(C)CC(=O)Nc2cccc(F)c2)cc1S(=O)(=O)N1CCCCC1 | –
